One series concerns Ovine Laminitis. The experiment in a line: Histological evaluation of treatment in an acute model of ovine laminitis (lactic acid infusion + Compound 48/80). The class given is in vivo. The conditions noted are these: Group 2: Nedocromil sodium (42 mg/kg) + lactic acid infusion + Compound 48/80 (1 mg/kg); anesthetized sheep; hematoxylin and eosin sections. On the procedure:
Laminitis can be induced in vivo through systemic acidosis. This study initiated laminitis in anesthetized sheep by inducing acidosis for the purpose of measuring the level of inflammation in the hoof vascular bed associated with initiation of laminitis. Adult Suffolk sheep (at least 6 months old) weighing at least 60 kg were obtained for the study. Animals were housed and research procedures were performed according to the standards provided in the Guide for the Care and Use of Laboratory Animals, 7th Edition, Revised 1996, National Academy Press, Washington, DC. During acclimation, sheep were pasture-housed with access to feed, water, and shelter. Sheep were fed a standard diet of hay and alfalfa in addition to pasture feed. One day prior to surgery, each animal was transferred to an indoor facility with single animal runs. […] The runs had automatic watering devices and animals were fed in steel feeders. Animals were acclimated for a minimum of one day prior to surgery. Sheep were fasted approximately 16 hours overnight on the day prior to surgery. Two sheep served as terminal controls after prolonged infusion of lactic acid and the mast cell activator 48/80. Systemic blood pH was lowered to approximately […], the animals euthanized, and the hooves observed histopathologically. […]

Series [1] deals with Rattus norvegicus basophilic leukemia cells. The series is described as follows: Lactic acid-stimulated histamine release from basophilic leukemia cells (GC-MS). The class given is cell-based. On the procedure:
The immortal cell culture line of Rattus norvegicus basophilic leukemia cells was subcultured and incubated at 37° C. overnight. […] After incubation, 50 μL of the supernatant was removed from the cells and stored at −80° C. or derivatized for GC-MS analysis.
The supernatant was mixed with 135 μl of an acetone reaction solution (ethanol, triethylamine, and 9-methylanthracene) in a 0.5 ml microtube. After mixing for 10 seconds, 55 μl of a chloroform derivatization solution containing […] ethylchloroformate was added and mixed for an additional 10 seconds. Then, 350 μL purified water was added and the two phases allowed to separate for 60 seconds. The organic phase was aspirated and placed into a 2 mL autosampler amber vial with glass inserts and dried with anhydrous sodium sulfate before being capped with GC vial snap caps.
The organic phase samples were dried and analyzed on an Agilent GC/MS 6890/5975C system with MS Chem Station software. Gas chromatography was carried out using a fused silica DB-WAX precolumn (0.2 m×0.25 mm, dF=0.25 μm), and a fused silica DB-WAX separation column (4 m×0.25 mm, dF=0.25 μm). Ultra high purity He was used as the carrier gas.
The GC parameters were set as follows: injection time was set to 5 μl using the splitless mode. After 120 seconds the split valve was opened with a 40 mL/minute split flow and front inlet temperature was held at 150° C. The oven temperature was ramped, starting at 60° C. for 2 minutes then increased at 50° C./minute to 160° C., then increased at 20° C./minute to 260° C. and held for 2.5 minutes. The MS detector was maintained at 300° C., with a solvent delay of 7 minutes, ion m/z 192 at 7.0-8.7 minutes, dwell time 100 ms, low-mass resolution; ion m/z 166, m/z 154 at 8.7-11.5 minutes, dwell time per ion 100 ms, low-mass resolution. […]

A further series relates to Bovine Laminitis. Format: in vivo, Holstein calves. An excerpt:
To test the effectiveness of nedocromil sodium to prevent laminitis in cattle, 4 Holstein calves weighing between 325 and 350 pounds were selected for the study and treated as shown in Table 11.
Starting with day one through day four, and continuing day six through day seven, calves 1 and 2 received Nedocromil sodium pretreatment (1.5 grams infused through the jugular vein) while calves 3 and 4 received no treatment. On each of days one through four and days six through seven, blood samples were obtained from all four calves. No treatments were administered on days eight through ten. On day eleven, calves 1 and 2 were administered 2 grams of Nedocromil sodium. Shortly thereafter, 3.5 pounds of corn starch and 1.5 pounds of sugar mixed in water along with 6×10^11 lactic acid producing and histamine producing organisms were administered to all four calves by releasing the mixture into the rumen of each animal. The process of administering the carbohydrate plus lactic acid producing and histamine producing organisms is known to induce acidosis in cattle.
The calves' behavior was observed, blood samples taken, and temperatures measured over the next 72 hours.

Each structure is given as a SMILES string. “Also recorded” adds a separate entry of the source. Where a name gives a salt, the structure may show the parent alone.

Turning to `CCCc1c2oc(C(=O)O)cc(=O)c2cc2c(=O)cc(C(=O)O)n(CC)c12` [Nedocromil sodium, disodium salt of 9-ethyl-6,9-dihydro-4,6-dioxo-10-propyl-4H-pyrano[3,2-g]-quinoline-2,8-dicarboxylic acid], the “Findings (histology of hoof sections, inflammation)” value in the series with Ovine Laminitis is on record as “No inflammation was observed; also recorded: effectively reduced short-term inflammation; also recorded: No significant findings”. The “Histamine Levels” value in series [1] (Lactic acid + 1 μl nedocromil sodium) is 15.810; in series [1] (Lactic acid + 2 μl nedocromil sodium), 14.470. The “Inhibition of histamine release” value in series [1] (lactic acid-stimulated cells, increasing levels of nedocromil sodium) was “effective in inhibiting histamine release”. Moreover, the “Toxicity and/or side effects” value with Bovine Laminitis (bovine, in vivo) is reported as “lack of toxicity and/or side effects”. Also, in the series on Bovine Laminitis (calves 1 and 2, nedocromil sodium 1.5 g via jugular vein on days 1-4 and 6-7, 2 g on day 11 before carbohydrate mixture, observed 72 hours), the “Protection from lactic acidosis” value is given as “protected from lactic acidosis”.
